Some test systems named below: SK-MEL-5 melanoma; RXF 393 renal; SF-268 CNS; UO-31 renal; IGROV1 ovarian; SW-620 colon; A498 renal; M14 melanoma; LOX IMVI melanoma; CCRF-CEM leukemia; HCC-2998 colon; MDA-MB-231 breast.
Holding throughout (assay): NCI anticancer screen, dose series, 48 h

Results on 11 compounds are retold here after PubChem BioAssay (NCI).

Molecules are shown by their SMILES.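 Protocol summary: plate cells (96-well), add compound at 5 concentrations, incubate 48 h, interpolate endpoints linearly. TGI denotes the concentration required for complete inhibition of growth.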

For the compound `O=C1O[C@H](C(Cl)(Cl)Cl)N2CCCC12` (some centres not stated), the TGI in the assay with SK-MEL-5 melanoma, in the assay with RXF 393 renal, in the assay on SF-268 CNS, in the assay on UO-31 renal, in the assay with IGROV1 ovarian and with SW-620 colon was > 100 µM in each case. Moreover, the TGI in the assay on A498 renal, with M14 melanoma, in the assay on LOX IMVI melanoma and in the assay on CCRF-CEM leukemia was > 100 µM in each case.
Turning to `CCOC(=O)C(=O)C1C(=O)Nc2ccccc21` (configuration not stated), the TGI with RXF 393 renal, in the assay on SF-268 CNS, in the assay on UO-31 renal, in the assay on IGROV1 ovarian, in the assay with SW-620 colon and in the assay with A498 renal was > 100 µM in each case. Besides, the TGI in the assay on M14 melanoma, with HCC-2998 colon, in the assay with LOX IMVI melanoma and with CCRF-CEM leukemia was > 100 µM each time.
For the compound `CCNC(=O)/C=C/CCC#Cc1ccc(-c2ccc(-c3cccs3)s2)s1`, the TGI in the assay with SK-MEL-5 melanoma, with RXF 393 renal, in the assay on SF-268 CNS, in the assay with UO-31 renal, in the assay on IGROV1 ovarian and in the assay with SW-620 colon was > 100 µM each time. The TGI with M14 melanoma, in the assay with HCC-2998 colon, in the assay on LOX IMVI melanoma and with CCRF-CEM leukemia was > 100 µM in each case.
Turning to `Cc1ccc(S(=O)(=O)NC(=O)NCCC(=O)O)cc1`, the TGI in the assay on SK-MEL-5 melanoma, in the assay with RXF 393 renal, in the assay on SF-268 CNS, in the assay with UO-31 renal, in the assay with IGROV1 ovarian and in the assay on SW-620 colon was > 100 µM each time. For the same compound, the TGI with MDA-MB-231 breast, in the assay on M14 melanoma, with LOX IMVI melanoma and in the assay with CCRF-CEM leukemia was > 100 µM each time.
Take `CO/C(=N\N=C\c1ccc(Cl)cc1Cl)c1ccncc1`: the TGI with RXF 393 renal, in the assay with SF-268 CNS, in the assay on UO-31 renal, in the assay with SW-620 colon, in the assay with MDA-MB-231 breast and in the assay on M14 melanoma was > 10 µM in each case. In addition, the TGI in the assay with LOX IMVI melanoma and with CCRF-CEM leukemia was > 10 µM in each case.
As for `CCOC(=O)C(NC(=O)CC(C)C)(Nc1ccc(C(F)(F)F)cc1)C(F)(F)F` (configuration not stated), the TGI in the assay on SK-MEL-5 melanoma, in the assay on RXF 393 renal, in the assay with SF-268 CNS, in the assay with UO-31 renal, with IGROV1 ovarian and in the assay with SW-620 colon was > 100 µM each time. For the same compound, the TGI in the assay with M14 melanoma, in the assay on HCC-2998 colon, in the assay on LOX IMVI melanoma and with CCRF-CEM leukemia was > 100 µM throughout.
Consider `CC(=Nc1c2ccccc2nc2ccccc12)N(C)C`, for which the TGI with SK-MEL-5 melanoma was 27.8 µM; with RXF 393 renal, 78.1 µM; in the assay with SF-268 CNS, > 100 µM; in the assay with UO-31 renal, 54.6 µM; with IGROV1 ovarian it was > 100 µM; in the assay on MDA-MB-231 breast, 30.4 µM. In addition, the TGI was 25.4 µM with M14 melanoma, 26.7 µM in the assay with LOX IMVI melanoma and > 100 µM with CCRF-CEM leukemia.
For the compound `O=C(NNc1cn[nH]c(=O)c1Cl)/C(=C/c1ccc2c(c1)OCO2)NC(=O)c1ccccc1`, the TGI in the assay with SK-MEL-5 melanoma, in the assay on UO-31 renal, in the assay with IGROV1 ovarian, in the assay with SW-620 colon, with MDA-MB-231 breast and in the assay on M14 melanoma was > 100 µM in each case. The TGI in the assay on HCC-2998 colon and in the assay on LOX IMVI melanoma was > 100 µM throughout.
Take `COc1cccc2c1C1(O)C2CCCC12OCCCO2` (configuration not stated): the TGI in the assay with SK-MEL-5 melanoma, in the assay with RXF 393 renal, with SF-268 CNS, in the assay on UO-31 renal, in the assay on IGROV1 ovarian and in the assay with SW-620 colon was > 100 µM throughout. The TGI in the assay on A498 renal, in the assay with M14 melanoma, with HCC-2998 colon, in the assay on LOX IMVI melanoma and with CCRF-CEM leukemia was > 100 µM throughout.
For the compound `CC(=O)NC1=C(C)C(=O)c2c(nc3n2CCC3O)C1=O` (configuration not stated), the TGI was > 100 µM in the assay on SK-MEL-5 melanoma; 48.3 µM in the assay on RXF 393 renal; > 83.3 µM in the assay with SF-268 CNS; > 100 µM with UO-31 renal; > 89.7 µM in the assay with IGROV1 ovarian; > 100 µM with SW-620 colon. Also, the TGI in the assay on A498 renal was > 100 µM; in the assay on M14 melanoma, > 100 µM; in the assay with HCC-2998 colon, > 100 µM; with LOX IMVI melanoma, > 100 µM; with CCRF-CEM leukemia, 39.3 µM.
Take `CC1CCc2c(sc3ncnc(N/N=C/c4ccc(Cl)c(Cl)c4)c23)C1` (configuration not stated): the TGI in the assay on SK-MEL-5 melanoma was 51.3 µM; with RXF 393 renal, 70.3 µM; in the assay with SF-268 CNS, > 100 µM; in the assay with UO-31 renal, 43.8 µM; with IGROV1 ovarian it was > 100 µM; in the assay on SW-620 colon it was > 100 µM. Further, the TGI in the assay on M14 melanoma is 30.2 µM; in the assay with HCC-2998 colon, > 100 µM; in the assay on LOX IMVI melanoma, 54.6 µM; in the assay with CCRF-CEM leukemia, 41.6 µM.
